{
  "source": "patent US20250171744A1",
  "about": "“METHODS OF REPROGRAMMING SOMATIC CELLS AND MATERIALS RELATED THERETO” (CITY OF HOPE, priority 2019, published 2025)",
  "type_in_all_cases": "cell-based, human",
  "key": {"[1]": {"system": "293T cells", "assay": "Embryoid body formation from SSEA4 positive sorted cells (FIG. 27)", "protocol": "HEK293T and HF57 were treated with MTX and PTX for 7 or more days in low methionine condition. SSEA4 positive cells were sorted using cell sorter and maintained on mTeSR™ Plus medium supplemented with HT.\n293T cells were treated with MTX and/or PTX for 10 or more days. SSEA4 positive cells were sorted using single cell sorter and maintained on mTeSR1 medium. […] FIGS. 28-29 show the three-germ layer immunostaining of putative pluripotent stem cells derived from 293T cells treated with MTX and PTX."}, "[2]": {"system": "293T cells", "assay": "Cardiomyocyte differentiation, correlative immunostaining (FIG. 31)", "conditions": "MTX Treated; vs H1 positive and untreated negative control", "protocol": "(§1) MTX/PTX treated and SSEA4 positive cells were maintained on Matrigel-coated 6-well plates in mTeSR1 medium. To induce differentiation, cells with EB-like morphology were dissociated with Accutase (Invitrogen) at 37° C. for 5 minutes and then single cell suspension was seeded onto a Matrigel-coated cell-culture dish at 100,000 cell/cm^2 in mTeSR1 supplemented with 5 μM ROCK inhibitor (Y-27632) for 24 hours. The cells then were cultured in mTeSR1 medium, which was changed daily. Next, 8 μl of 36 mM CHIR99021 were added into 24 ml RPMI/B27-insulin medium to make 12 μM CHIR99021 RPMI/B27-insulin medium and 2-ml of this were added to each well after the old mTeSR1 medium was removed. Exactly 24 hours after adding CHIR, the medium was replaced with 2 ml room temperature RPMI/B27-insulin. The plate was put back into the 37° C., 5% CO2 incubator. 72 hours post addition of CHIR99021, 1 ml medium from each well was removed and the remaining 1-ml was supplemented with 1-ml RPMI/B27-insulin with 5 μM IWP2 (WNT pathway inhibitor). After 48 hours, the medium was replaced with fresh RPMI/B27-insulin and this was incubated at 37° C., 5% CO2 incubator. After this, every 2-days, the old medium was removed from each well of the 12-well plate and 2 ml/well room temperature RPMI/B27 medium was added and incubated at 37° C., 5% CO2. […]"}, "[3]": {"assay": "Cardiomyocyte differentiation, correlative immunostaining (FIG. 31)", "conditions": "MTX Treated; vs H1 positive and untreated negative control", "protocol": "as §1"}, "[4]": {"system": "Sox2 and Oct4 (stem cell markers)", "assay": "qRT-PCR relative transcript levels of stem cell markers (FIG. 21A)", "conditions": "cell line not given, vs control cells", "protocol": "To validate microarray results, quantitative 2-step RT-PCR was performed. One microgram of total RNA was reverse transcribed to first-strand cDNA with the Qiagen cDNA Synthesis Kit (Qiagen), and this cDNA was subsequently used as a template for quantitative PCR with gene-specific primers. The ubiquitous β-actin gene served as a control for constitutive gene expression. The quantitative RT-PCR (qRT-PCR) reactions were performed using Power Sybr Green PCR Master Mix (Thermo Fisher Scientific) on a CFX96 Touch Real-Time PCR Detection System (Bio-Rad, Hercules, CA, USA). Relative expression levels (2^−ΔCt) were calculated according to the Livak and Schmittgen method (40). Expression levels of each gene were compared with the expression level of actin."}, "[5]": {"conditions": "treated 7 or more days, low methionine, mTeSR Plus + HT, after 15-days"}, "[6]": {"conditions": "treated 10 or more days, mTeSR1 medium, after 10-days"}},
  "data": [
    {"smiles": "CN(Cc1cnc2nc(N)nc(N)c2n1)c1ccc(C(=O)N[C@@H](CCC(=O)O)C(=O)O)cc1", "note": "[MTX, methotrexate]", "values": [
      {"measurement": "embryoid body formation", "setting": "[1]; [5]", "result": "formed embryoid bodies"},
      {"measurement": "embryoid body formation", "setting": "[1]; [6]", "result": "started forming embryoid bodies"},
      {"measurement": "cardiac muscle cells in the differentiation medium", "setting": "[2]", "result": "had cardiac muscle cells"},
      {"measurement": "cardiac muscle cells in the differentiation medium", "setting": "[3]", "result": "had cardiac muscle cells"},
      {"measurement": "relative transcripts level of Oct4", "setting": "[4]", "result": "significantly higher"},
      {"measurement": "relative transcripts level of Sox2", "setting": "[4]", "result": "significantly higher"}
    ]},
    {"smiles": "Nc1nc2[nH]cc(CCc3ccc(C(=O)N[C@@H](CCC(=O)O)C(=O)O)cc3)c2c(=O)[nH]1", "note": "[PTX, pemetrexed]", "values": [
      {"measurement": "embryoid body formation", "setting": "[1]; [5]", "result": "formed embryoid bodies"},
      {"measurement": "embryoid body formation", "setting": "[1]; [6]", "result": "started forming embryoid bodies"}
    ]}
  ]
}
